Test results reported in patent US10849990B2 (priority 2018, dated 2020).

Tests used:
VL neurons = test: In vivo spike recording of spontaneous rebound firing in SPR-KO mice; settings: mouse
SPR-KO mice [1] = test: Tremor test in SPR-KO mice; settings: mouse, in vivo
SPR-KO mice [2] = settings: mouse, in vivo

| Compound | spontaneous rebound firing of VL neurons (VL neurons) | abnormal motor functions (tremor score) (SPR-KO mice [1]) | motor problems (akinesia, gait disturbance, tremor) (SPR-KO mice [2]) |
| --- | --- | --- | --- |
| CCC1(C)CC(=O)NC1=O (stereo not drawn) [ethosuximide] | reduced spontaneous rebound firing | ameliorated |  |
| N[C@@H](Cc1ccc(O)c(O)c1)C(=O)O [L-DOPA] |  |  | ameliorated |
